molecular target: T1, human μ opioid receptor (Homo sapiens, UniProt P35372); assay: biochemical; format: binding; details: [3H]DAMGO (μ)
T1 construct: expressed in transfected cells
T1 sequence (P35372 whole entry): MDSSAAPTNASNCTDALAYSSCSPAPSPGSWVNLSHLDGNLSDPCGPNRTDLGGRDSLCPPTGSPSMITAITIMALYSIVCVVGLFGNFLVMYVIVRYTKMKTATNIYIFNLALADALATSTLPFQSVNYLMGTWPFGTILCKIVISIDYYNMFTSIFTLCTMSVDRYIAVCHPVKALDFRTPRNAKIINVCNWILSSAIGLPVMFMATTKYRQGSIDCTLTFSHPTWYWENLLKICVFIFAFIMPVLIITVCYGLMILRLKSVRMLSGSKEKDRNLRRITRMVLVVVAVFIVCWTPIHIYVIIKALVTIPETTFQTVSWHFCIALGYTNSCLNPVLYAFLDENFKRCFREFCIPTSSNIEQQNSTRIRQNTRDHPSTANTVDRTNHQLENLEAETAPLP

Question: Which Ki does the source give for `O=C(NCCc1ccc(-c2ccccc2)cc1)c1ccc2c3c1OC1C(=O)CCC4(O)C(C2)N(CC2CC2)CCC314` (single isomer, unassigned; (-)) [Example 71, (−)-Q-naltrexone] here?
Answer: 1.4 ± 0.12 nM

Question: Which Ki does the source give for `CC1C2C(=O)c3ccc(C(=O)NCCc4ccc(-c5ccccc5)cc4)cc3C1(C)CCN2CC1CC1` (stereo not drawn) [Example 20] here?
Answer: 3.1 ± 1.3 nM

Question: Which Ki does the source give for `CC(CNC(=O)c1ccc2c(c1)[C@@]1(C)CCN(CC3CC3)C(C2)[C@@H]1C)c1ccc(-c2ccccc2)cc1` (stereo partly drawn) [Example 46] here?
Answer: 18 ± 1.1 nM

Question: Which Ki does the source give for `C[C@H]1C2Cc3ccc(C(=O)NCCCCc4ccccc4)cc3[C@@]1(C)CCN2CC1CC1` [Example 60] here?
Answer: 4.3 ± 0.42 nM

Question: Which Ki does the source give for `O=C(NCCc1ccc(-c2ccccc2)cc1)c1ccc2c(c1)[C@@]13CCCC[C@@]1(O)[C@@H](C2)N(CC1CCC1)CC3` [Example 79, (−)-Q-butorphanol] here?
Answer: 0.32 ± 0.048 nM

Question: With `C[C@H]1C2Cc3ccc(C(=O)NCCc4ccc(C(=O)NCCc5ccc(Br)cc5)cc4)cc3[C@@]1(C)CCN2CC1CC1` [Example 53] as the molecule, how does the Ki read?
Answer: 1.5 ± 0.18 nM

Question: For `C[C@H]1C2Cc3ccc(C(=O)NCCc4ccc(-c5cccc(Cl)c5)cc4)cc3[C@@]1(C)CCN2CC1CC1` [Example 50], which Ki is on record?
Answer: 0.56 ± 0.087 nM

Question: Which Ki does the source give for `CC1C2Cc3ccc(C(=O)NCCc4cccnc4)cc3C1(C)CCN2CC1CC1` (racemic) [Example 69] here?
Answer: 120 ± 3.6 nM

Question: For `CC(NC(=O)c1ccc2c(c1)C1(C)CCN(CC3CC3)C(C2)C1C)c1ccccc1` (single isomer, unassigned) [Example 68], which Ki is on record?
Answer: 62 ± 3.3 nM

Question: With `CC[C@@]12CCN(CC3CC3)C(C(=O)c3ccc(C(=O)NCCc4ccc(-c5ccccc5)cc4)cc31)[C@@H]2C` (mixture of isomers) [Example 21, (±)-3-(Cyclopropylmethyl)-6-ethyl-1,2,3,4,5,6-hexaahydro-cis-11-methyl-N-(2-[1,1′-biphenyl]-4-ylethyl)-1-oxo-2,6-methano-3-benzazocine-8-carboxamide] as the molecule, how does the Ki read?
Answer: 4.9 ± 0.2 nM

Question: Which Ki does the source give for `O=C1CC[C@@]2(O)[C@H]3Cc4ccc(C(=O)NCCc5ccc(-c6ccccc6)cc5)c(O)c4[C@@]2(CCN3CC2CC2)C1` [Example 81, Q-naltrexone ring opened] here?
Answer: 0.71 ± 0.091 nM

Question: Which Ki does the source give for `CC1C2Cc3ccc(C(=O)NCCCCCc4ccccc4)cc3C1(C)CCN2CC1CC1` (racemic) [Example 61] here?
Answer: 1.7 ± 0.15 nM

Question: With `CC(NC(=O)c1ccc2c(c1)C1(C)CCN(CC3CC3)C(C2)C1C)c1ccccc1` (single isomer, unassigned) [Example 67] as the molecule, how does the Ki read?
Answer: 28 ± 1.4 nM

same assay, conditions: read-out: [3H]DAMGO (μ)

Question: Which Ki does the source give for `C[C@H]1C2Cc3ccc(C(=O)NCCc4ccc(-c5ccc(Cl)cc5)cc4)cc3[C@@]1(C)CCN2CC1CC1` [Example 49] here?
Answer: 0.2 ± 0.038 nM

Question: For `CC1[C@@H]2Cc3ccc(C(=O)NCCCc4ccccc4)cc3[C@@]1(C)CCN2CC1CC1` (mixture of isomers) [Example 12, (±)-3-(Cyclopropylmethyl)-1,2,3,4,5,6-hexahydro-cis-6,11-dimethyl-N-(3-phenylpropyl)-2,6-methano-3-benzazocine-8-carboxamide], which Ki is on record?
Answer: 2.5 ± 0.27 nM

Question: With `CC1[C@@H]2Cc3ccc(C(=O)NCCc4ccccc4)cc3[C@@]1(C)CCN2CC1CC1` (mixture of isomers) [Example 11, (±)-3-(Cyclopropylmethyl)-1,2,3,4,5,6-hexahydro-cis-6,11-dimethyl-N-(2-phenylethyl)-2,6-methano-3-benzazocine-8-carboxamide] as the molecule, how does the Ki read?
Answer: 3.5 ± 0.27 nM

Question: Which Ki does the source give for `CC1[C@@H]2Cc3ccc(C(=O)NCCc4ccccc4Br)cc3[C@@]1(C)CCN2CC1CC1` (mixture of isomers) [Example 52, (±)-3-(Cyclopropylmethyl)-1,2,3,4,5,6-hexahydro-cis-6,11-dimethyl-N-(2-bromophenethyl)-2,6-methano-3-benzazocine-8-carboxamide] here?
Answer: 4 ± 0.36 nM

Question: Which Ki does the source give for `COc1ccc(-c2ccc(CCNC(=O)c3ccc4c(c3)[C@@]3(C)CCN(CC5CC5)C(C4)[C@@H]3C)cc2)cc1` [Example 48] here?
Answer: 0.084 ± 0.012 nM

Question: Which Ki does the source give for `CC1[C@@H]2Cc3ccc(C(=O)NCCc4ccc5ccccc5c4)cc3[C@@]1(C)CCN2CC1CC1` (mixture of isomers) [Example 37, (±)-3-(Cyclopropylmethyl)-1,2,3,4,5,6-hexahydro-cis-6,11-dimethyl-N-(2-(naphthalen-2-yl)ethyl)-2,6-methano-3-benzazocine-8-carboxamide] here?
Answer: 0.18 ± 0.009 nM

Question: Which Ki does the source give for `CC1[C@@H]2Cc3ccc(C(=O)NCCc4ccc(Oc5ccccc5)cc4)cc3[C@@]1(C)CCN2CC1CC1` (mixture of isomers) [Example 33, (±)-3-(Cyclopropylmethyl)-1,2,3,4,5,6-hexahydro-cis-6,11-dimethyl-N-(4-phenoxyphenethyl)-2,6-methano-3-benzazocine-8-carboxamide] here?
Answer: 0.059 ± 0.017 nM

Question: Which Ki does the source give for `CC1[C@@H]2Cc3ccc(C(=O)NCCCc4ccc5ccccc5c4)cc3[C@@]1(C)CCN2CC1CC1` (mixture of isomers) [Example 41, (±)-3-(Cyclopropylmethyl)-1,2,3,4,5,6-hexahydro-cis-6,11-dimethyl-N-(3-(naphthalen-2-yl)propyl)-2,6-methano-3-benzazocine-8-carboxamide] here?
Answer: 2.4 ± 0.45 nM

Question: For `CC1[C@@H]2Cc3ccc(C(=O)NCCCc4ccc5ccccc5c4)cc3[C@@]1(C)CCN2CC1CC1` (mixture of isomers) [Example 38, (±)-3-(Cyclopropylmethyl)-1,2,3,4,5,6-hexahydro-cis-6,11-dimethyl-N-(3-(naphthalen-2-yl)propyl)-2,6-methano-3-benzazocine-8-carboxamide], which Ki is on record?
Answer: 1.9 ± 0.19 nM

Question: Which Ki does the source give for `CC1[C@@H]2Cc3ccc(C(=O)NCCc4cccc5ccccc45)cc3[C@@]1(C)CCN2CC1CC1` (mixture of isomers) [Example 40, (±)-3-(Cyclopropylmethyl)-1,2,3,4,5,6-hexahydro-cis-6,11-dimethyl-N-(2-(naphthalen-1-yl)ethyl)-2,6-methano-3-benzazocine-8-carboxamide] here?
Answer: 4.2 ± 0.13 nM

Question: Which Ki does the source give for `Cc1ccc(-c2ccc(CCNC(=O)c3ccc4c(c3)[C@@]3(C)CCN(CC5CC5)C(C4)[C@@H]3C)cc2)cc1` [Example 51] here?
Answer: 0.29 ± 0.075 nM

Question: With `CC1[C@@H]2Cc3ccc(C(=O)NCCc4cccc(Oc5ccccc5)c4)cc3[C@@]1(C)CCN2CC1CC1` (mixture of isomers) [Example 34, (±)-3-(Cyclopropylmethyl)-1,2,3,4,5,6-hexahydro-cis-6,11-dimethyl-N-(3-phenoxyphenethyl)-2,6-methano-3-benzazocine-8-carboxamide] as the molecule, how does the Ki read?
Answer: 0.54 ± 0.16 nM

Question: With `CC1[C@@H]2Cc3ccc(C(=O)NCCc4ccccc4-c4ccccc4)cc3[C@@]1(C)CCN2CC1CC1` (mixture of isomers) [Example 26, (±)-3-(Cyclopropylmethyl)-1,2,3,4,5,6-hexahydro-cis-6,11-dimethyl-N-(2-(biphenyl-2-yl)ethyl)-2,6-methano-3-benzazocine-8-carboxamide] as the molecule, how does the Ki read?
Answer: 6.7 ± 0.49 nM

Question: For `CC1[C@@H]2Cc3ccc(C(=O)NCCc4cccc(Br)c4)cc3[C@@]1(C)CCN2CC1CC1` (mixture of isomers) [Example 30, (±)-3-(Cyclopropylmethyl)-1,2,3,4,5,6-hexahydro-cis-6,11-dimethyl-N-(3-bromophenethyl)-2,6-methano-3-benzazocine-8-carboxamide], which Ki is on record?
Answer: 0.35 ± 0.021 nM

Question: For `CC1[C@@H]2Cc3ccc(C(=O)NCCc4cccc(-c5ccccc5)c4)cc3[C@@]1(C)CCN2CC1CC1` (mixture of isomers) [Example 25, (±)-3-(Cyclopropylmethyl)-1,2,3,4,5,6-hexahydro-cis-6,11-dimethyl-N-(2-(biphenyl-3-yl)ethyl)-2,6-methano-3-benzazocine-8-carboxamide], which Ki is on record?
Answer: 0.95 ± 0.15 nM

Question: With `CC1[C@@H]2Cc3ccc(C(=O)NCCc4ccc(Br)cc4)cc3[C@@]1(C)CCN2CC1CC1` (mixture of isomers) [Example 29, (±)-3-(Cyclopropylmethyl)-1,2,3,4,5,6-hexahydro-cis-6,11-dimethyl-N-(4-bromophenethyl)-2,6-methano-3-benzazocine-8-carboxamide] as the molecule, how does the Ki read?
Answer: 2.4 ± 0.33 nM

Question: For `CC1[C@@H]2Cc3ccc(C(=O)NCCc4ccc(Cc5ccccc5)cc4)cc3[C@@]1(C)CCN2CC1CC1` (mixture of isomers) [Example 27, (±)-3-(Cyclopropylmethyl)-1,2,3,4,5,6-hexahydro-cis-6,11-dimethyl-N-(4-benzylphenethyl)-2,6-methano-3-benzazocine-8-carboxamide], which Ki is on record?
Answer: 0.23 ± 0.032 nM

Question: For `CC1[C@@H]2Cc3ccc(C(=O)NCCc4ccccc4Oc4ccccc4)cc3[C@@]1(C)CCN2CC1CC1` (mixture of isomers) [Example 35, (±)-3-(Cyclopropylmethyl)-1,2,3,4,5,6-hexahydro-cis-6,11-dimethyl-N-(2-phenoxyphenethyl)-2,6-methano-3-benzazocine-8-carboxamide], which Ki is on record?
Answer: 0.63 ± 0.09 nM

test system: guinea pig μ receptors; assay: not given; details: background, U.S. Pat. No. 6,784,187; cited from earlier work

Question: Which “affinity for μ opioid receptors” value does the source give for `C[C@H]1C2Cc3ccc(C(N)=O)cc3[C@@]1(C)CCN2CC1CC1` [Example 8-CAC, 8-carboxamidocyclazocine] here?
Answer: high affinity

test system: κ opioid receptors; assay: not given; details: background, U.S. Pat. No. 6,784,187; cited from earlier work

Question: Which “affinity for κ opioid receptors” value does the source give for `C[C@H]1C2Cc3ccc(C(N)=O)cc3[C@@]1(C)CCN2CC1CC1` [Example 8-CAC, 8-carboxamidocyclazocine] here?
Answer: high affinity

test system: mice; assay: not given; details: 1 mg/kg ip in mice; cited from earlier work

Question: Which duration of action does the source give for `C[C@H]1C2Cc3ccc(C(N)=O)cc3[C@@]1(C)CCN2CC1CC1` [Example 8-CAC, 8-carboxamidocyclazocine] here?
Answer: 15 h

Question: Which duration of action does the source give for `C[C@H]1[C@H]2Cc3ccc(O)cc3[C@]1(C)CCN2CC1CC1` [cyclazocine] here?
Answer: 2 h

same assay, conditions: background; cited from earlier work

Question: Which “antinociception activity in vivo” value does the source give for `C[C@H]1C2Cc3ccc(C(N)=O)cc3[C@@]1(C)CCN2CC1CC1` [Example 8-CAC, 8-carboxamidocyclazocine] here?
Answer: high antinociception activity

From US8026252B2 (priority 2005, dated 2011)
